In patent US12415184B2, “Device for analysis of cellular motility” (MOTILITYCOUNT APS, priority 2013, dated 2025):

System: sperm cells
Experiment: effects of detection agents on the motility of sperm cells (microscopic analysis)
Type: cell-based
Conditions: 60 min, ambient temperature; for Cells: cells in total / Cells: motile cells: 50:50 with sperm sample 60/72
Procedure: The possible effects of two detection agents, MTT and crystal violet, on the motility of sperm cells were tested. Stock solutions of MTT and crystal violet of 5 mg/ml and 1 mg/ml, respectively, were prepared, and these were diluted two-fold serially. The detection agent solutions were mixed with sperm samples comprising 60 million motile cells per milliliter and 72 million cells per milliliter in total (denoted 60/72) in a 50:50 ratio and the mixtures were incubated for 60 min at ambient temperature before analysing the cells microscopically.

CN(C)c1ccc(C(=C2C=CC(=[N+](C)C)C=C2)c2ccc(N(C)C)cc2)cc1 [Crystal violet, crystal violet]
Cells: cells in total (Crystal violet 0.125 mg/ml): 56 million per milliliter
Cells: motile cells (Crystal violet 0.125 mg/ml): 37 million per milliliter
Cells: cells in total (Crystal violet 0.25 mg/ml): 56 million per milliliter
Cells: motile cells (Crystal violet 0.25 mg/ml): 32 million per milliliter
Cells: cells in total (Crystal violet 0.5 mg/ml): 43 million per milliliter
Cells: motile cells (Crystal violet 0.5 mg/ml): 27 million per milliliter
Cells: cells in total (Crystal violet 1 mg/ml): 63 million per milliliter
Cells: motile cells (Crystal violet 1 mg/ml): 40 million per milliliter
ratio of motile versus non-motile cells (% motile) (concentrations of Table 3): not affected
